Values of other authors in PMC8617627, “Novel DYRK1A Inhibitor Rescues Learning and Memory Deficits in a Mouse Model of Down Syndrome” (Pharmaceuticals, 2021).
Read-outs that look alike come from different tables or passages of the source.

Tested on: 139-protein kinase panel
Conditions: no reference given, cited from earlier work

| Compound | GINI-index (comparison value for harmine) | GINI-index (comparison value for staurosporine, with 10 uM ATP) |
| --- | --- | --- |
| COc1ccc2c(c1)[nH]c1c(C)nccc12 [harmine] | 0.506 | – |
| CN[C@@H]1C[C@H]2O[C@@](C)([C@@H]1OC)n1c3ccccc3c3c4c(c5c6ccccc6n2c5c31)C(=O)NC4 [staurosporine] | – | 0.093 |
